Common to all, as to format: in vivo
Assay [1] has as its system cAMP. In words: cAMP content in rat blood plasma. The note with it: Aminophylline 30 mg/kg, DSP 50 mg/kg. How it is done:
• 6. Effects on cAMP content in rat blood plasma. Blood cAMP content was tested by radioimmunoassay.

Assay [2] has as its system cAMP. The assay is described as follows: cAMP content in rabbit blood platelets. The settings on record: per mg protein; Aminophylline 0.6 mg/kg, DSP 1.0 mg/kg. How it is done: • 5. Effects on cAMP content in rabbit blood platelets. cAMP content is tested by radioimmunoassay. Protein content is measured by the Hartree Method.
In assay [3] the test system is SOD, MDA. The assay is described as follows: High-fats rabbits: SOD activity and MDA content in blood serum and liver. The note with it: 8 weeks, DSP 4 g raw medicine/kg/d, Simvastatin 1 mg/kg/d. How it is done: Method. The experimental groups were divided into: (1) Normal control group. Normal feeding; (2) High-fats feeding group: high-fats feeding.
All were fed for 4 weeks. weight and lipoprotein content in the blood were measured. […] Medicine was given to the rabbits through the stomach, according to prescription. The same volume of distilled water was given to the normal control group and high-fats feeding group. Testing ended after 12 weeks.

For assay [4], the system named is aorta AS. In words: High-fats rabbits: aortic lesion and lipoprotein content in aorta. The settings on record: 8 weeks, DSP 4 g/kg/Day, Simvastatin 1 mg/kg/Day. How it is done:
(§1) 1.1 Experimental Groups. (1) Normal control group (8 rabbits) normal feeding; (2) High-fats group: High-fats feeding. All were fed for 4 weeks. Weight and lipoprotein in the blood were measured. The high-fats group was divided into 4 sub-groups (12 rabbits in each sub-group). 1. High-fats control group, 2. High-dosage of DSP group (4 g dosage/kg/day), 3. Low-dosage DSP group (2 g dosage/kg/day), and 4. […] All are given distilled water except those with special prescriptions and ends after 12 weeks testing.
1.2 Experimental Methods and Standards. (1) Examination of Aortic Lesion. Drugs were given to the animals for 8 weeks, and then the animals were killed. The aortas were removed and the unnecessary membranes and fats discarded. The aortas were cut open along the mid line. One-fifth of the aorta was removed for lipid examination. […] The percentage of the lesion part was calculated, and a grading was given. […] The average thickness of the interior membrane spot plates was measured by microscopic parameter. […] The number of blood vessels with spot plates in the coronary artery and the lesion percentage (lesion percentage=the number of blood vessels with lesion/the total number of blood vessels in each transect X100%) were observed, calculated and graded according to the blocking of the blood vessels with spot plates. The average points were calculated by accumulation.

Assay [5] deals with liver TG. In words: High-fats rabbits: liver TG and liver coefficient. The settings on record: DSP 4 g/kg, Simvastatin 1 mg/kg. How it is done:
as §1

Assay [6] has as its system serum lipoprotein. The assay is described as follows: High-fats rabbits: lipoprotein in blood serum. The note with it: DSP 4 g/kg/day, Simvastatin 1 mg/kg/day. How it is done: (1) Normal control group (8 rabbits) normal feeding; (2) High-fats group: High-fats feeding. All were fed for 4 weeks. Weight and lipoprotein in the blood were measured. […] High-fats control group, 2. High-dosage of DSP group (4 g dosage/kg/day), 3. […] All are given distilled water except those with special prescriptions and ends after 12 weeks testing.

Two compounds from patent US8486464B2, “Herbal composition for angina pectoris, method to prepare same and uses thereof” (Tasly Pharmaceutical Group Co. Ltd., priority 2000, dated 2013) can be followed below.

Marks after values point to notes of the source that are not given here.

On to `Cn1c(=O)c2[nH]cnc2n(C)c1=O` [Aminophylline], for which the “blood plasma cAMP content” value stood at 20.7 ± 3.2 Pmol/ml plasma in assay [1] (30 min after treatment) and 21.1 ± 3.8 Pmol/ml plasma in assay [1] (60 min after treatment). For the same compound, the “cAMP content in rabbit platelets” value in assay [2] amounted to 15.4 ± 3.9 pmol/mg.

Consider `CCC(C)(C)C(=O)O[C@H]1C[C@@H](C)C=C2C=C[C@H](C)[C@H](CC[C@@H]3C[C@@H](O)CC(=O)O3)[C@H]21` [Simvastatin], for which, in assay [3], the “MDA, blood serum” value is 5.63 ± 1.30 nmol/mL; the “SOD, Liver” value is reported as 11.62 ± 0.38*** 10^3 u/g tissue weight; the “SOD, blood serum” value stood at 816.7 ± 77.2 u/ml. Moreover, the “TC content in aorta” value in assay [4] was determined as 4.93 ± 2.62. For the same compound, the “Liver Coefficient” value in assay [5] amounted to 5.16 ± 0.60 g/100 g weight. In addition, in assay [6] (2 weeks after dosage), the “LDC-C, blood serum” value is 19.54 ± 5.71 mmol/L; the “TC, blood serum” value is on record as 27.06 ± 4.46 mmol/L; the “TC/HDL-C, blood serum” value came to 32.29 ± 7.39; the “TG, blood serum” value stood at 1.85 ± 0.55 mmol/L. Further, the “VLDC-C, blood serum” value in assay [6] (2 weeks after dosage) stood at 6.66 ± 1.65 mmol/L. Moreover, in assay [6] (4 weeks after dosage), the “LDC-C, blood serum” value is on record as 18.22 ± 3.37 mmol/L; the “TC, blood serum” value is recorded as 26.1 ± 3.03 mmol/L; the “TC/HDL-C, blood serum” value turned out to be 19.6 ± 4.38; the “TG, blood serum” value came out at 1.80 ± 0.31 mmol/L. The “VLDC-C, blood serum” value in assay [6] (4 weeks after dosage) was 6.54 ± 0.74 mmol/L. In assay [6] (8 weeks after dosage), the “LDC-C, blood serum” value is recorded as 17.78 ± 5.69 mmol/L; the “TC, blood serum” value is 26.3 ± 4.40 mmol/L; the “TC/HDL-C, blood serum” value stood at 22.3 ± 6.54; the “TG, blood serum” value is 2.70 ± 0.77 mmol/L. Besides, the “VLDC-C, blood serum” value in assay [6] (8 weeks after dosage) amounted to 7.30 ± 2.05 mmol/L. Moreover, in assay [6] (A/fter dosage), the “LDC-C, blood serum” value is given as 19.69 ± 8.33 mmol/L; the “TC, blood serum” value came to 26.92 ± 7.72 mmol/L; the “TC/HDL-C, blood serum” value is 31.68 ± 10.14; the “TG, blood serum” value is reported as 2.04 ± 1.00 mmol/L. For the same compound, the “VLDC-C, blood serum” value in assay [6] (A/fter dosage) came to 6.35 ± 1.42 mmol/L. In assay [6] (B/f testing), the “LDC-C, blood serum” value is on record as 0.87 ± 0.21 mmol/L; the “TC, blood serum” value stood at 2.27 ± 0.18 mmol/L; the “TC/HDL-C, blood serum” value came to 2.72 ± 0.85; the “TG, blood serum” value is recorded as 0.72 ± 0.15 mmol/L. Also, the “VLDC-C, blood serum” value in assay [6] (B/f testing) is 0.51 ± 0.27 mmol/L.
